Experimental data from patent publication US10829484B2, “Compounds and methods for kinase modulation, and indications therefor” (Plexxikon Inc., priority 2015, dated 2020).

What follows are compounds tested against T1, BaF3-FLT3-ITD-D835V (Homo sapiens, UniProt P36888, INS600HVDFREYEYD/D835V, cells depend on it) (assay: CTB viability assay CS0048, BaF3-FLT3-ITD-D835V). Settings: BaF3-FLT3-ITD-D835V cells, CellTiter Blue viability, 72 hours; read-out: Cell Assay: CS0048: BaF3-FLT3-ITD-D835V CTB:IC50.
T1 sequence (P36888 with tags, fused parts or gaps INS600HVDFREYEYD/D835V): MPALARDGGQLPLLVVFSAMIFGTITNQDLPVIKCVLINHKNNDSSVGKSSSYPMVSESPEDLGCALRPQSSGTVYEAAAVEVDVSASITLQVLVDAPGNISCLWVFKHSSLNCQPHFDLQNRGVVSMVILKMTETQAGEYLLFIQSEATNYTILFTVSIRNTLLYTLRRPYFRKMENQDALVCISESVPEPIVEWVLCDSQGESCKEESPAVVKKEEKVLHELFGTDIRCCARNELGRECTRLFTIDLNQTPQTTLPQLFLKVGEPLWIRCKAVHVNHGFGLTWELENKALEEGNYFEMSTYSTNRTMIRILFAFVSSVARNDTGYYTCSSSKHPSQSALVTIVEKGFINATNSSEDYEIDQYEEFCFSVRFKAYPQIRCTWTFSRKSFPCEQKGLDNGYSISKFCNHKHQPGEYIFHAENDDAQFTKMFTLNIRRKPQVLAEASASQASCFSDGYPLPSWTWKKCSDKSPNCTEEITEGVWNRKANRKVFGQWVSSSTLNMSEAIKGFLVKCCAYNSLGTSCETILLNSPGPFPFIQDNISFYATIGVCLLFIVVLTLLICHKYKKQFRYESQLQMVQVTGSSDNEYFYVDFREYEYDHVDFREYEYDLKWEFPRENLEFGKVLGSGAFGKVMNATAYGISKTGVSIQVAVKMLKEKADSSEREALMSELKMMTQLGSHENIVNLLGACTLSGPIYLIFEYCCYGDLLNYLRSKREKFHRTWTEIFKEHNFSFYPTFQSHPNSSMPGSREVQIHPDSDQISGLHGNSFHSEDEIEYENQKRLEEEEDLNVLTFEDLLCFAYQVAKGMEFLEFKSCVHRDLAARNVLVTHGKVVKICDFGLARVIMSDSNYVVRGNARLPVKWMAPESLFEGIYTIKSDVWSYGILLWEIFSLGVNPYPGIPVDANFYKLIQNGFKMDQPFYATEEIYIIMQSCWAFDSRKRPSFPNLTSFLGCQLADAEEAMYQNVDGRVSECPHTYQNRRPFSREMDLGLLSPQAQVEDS
Assay type: cell-based, murine
Method in brief: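 Murine Ba/F3 cells made IL-3-independent by retroviral human FLT3-ITD (MV4-11 ITD), ±F691L or D835V, serum-starved overnight in 0.5% FBS. 3-fold compound dilutions applied 72 h at 37° C; viability by CellTiter Blue fluorescence (ex 560/em 590 nm), normalized to DMSO, IC50 from duplicate plates.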
`Cc1nn(C)c(C)c1Nc1ncc(-c2ccc(CC(=O)Nc3cc(C4(C(F)(F)F)CC4)on3)c(F)c2)cn1` [P-029, 2-[2-fluoro-4-[2-[(l,3,5-trimethylpyrazol-4-yl)amino]pyrimidin-5-yl]phenyl]-N-[5-[1-(trifluoromethyl)cyclopropyl]isoxazol-3-yl]acetamide] was tested, and the GI50 was 0.01 to 0.05 µM.
Compound `O=C(O)Cn1cc(Nc2ncc(-c3ccc(CC(=O)Nc4cc(C5(C(F)(F)F)CC5)on4)c(F)c3)cn2)cn1` [P-078, 2-[4-[[5-[3-fluoro-4-[2-oxo-2-[[5-[1-(trifluoromethyl)cyclopropyl]isoxazol-3-yl]amino]ethyl]phenyl]pyrimidin-2-yl]amino]pyrazol-1-yl]acetic acid] has a GI50 of 0.05 to 0.1 µM.

Same assay, conditions: Table 3; CellTiter Blue viability, 72 hours; read-out: Cell Assay: CS0048: BaF3-FLT3-ITD-D835V CTB: IC50
With `O=C(Cc1ccc(-c2cnc(Nc3ccccc3)nc2)cc1F)Nc1cc(C2(C(F)(F)F)CC2)on1` the GI50 was 0.000772 µM.
`Cn1cc(Nc2ncc(-c3ccc(CC(=O)Nc4cc(C5(C(F)(F)F)CC5)on4)c(F)c3)cn2)cn1` gave a GI50 of 0.000259 µM.

Same assay, conditions: Table 4, compounds from WO 2011/022473; CellTiter Blue viability, 72 hours; read-out: Cell Assay: CS0048: BaF3-FLT3-ITD-D835V CTB: IC50
`CC(C)(c1cc(NC(=O)Cc2ccc(-c3ccc(NCCN4CCOCC4)nc3)cc2)no1)C(F)(F)F` [reference compound] gave a GI50 of 0.145 µM.
`CNc1ccc(-c2ccc(CC(=O)Nc3cc(C(C)(C)C)on3)cc2)cn1` [reference compound] was tested, and the GI50 was 0.092 µM.
With `CCNc1ccc(-c2ccc(CC(=O)Nc3cc(C(C)(C)C)on3)cc2)cn1` [reference compound] the GI50 was 0.0942 µM.
`CC(C)(C)c1cc(NC(=O)Nc2ccc(-c3cnc(NC4CCOCC4)nc3)cn2)no1` [reference compound] showed a GI50 of 0.673 µM.
For `CC(C)(C)c1cc(NC(=O)Nc2ccc(-c3cnc(NC4CC4)nc3)cn2)no1` [reference compound], the GI50 was 0.585 µM.
